Assay results published in the supplement of paper PMC13380429.

How the values were obtained:
Conditions in all cases: 72 h
Caco-2 [1] = assay: cell viability relative to DMSO; higher = less toxic
Calu-3 [2] = assay: as above
HepG2 [3] = assay: as above
U2OS [4] = assay: as above
Vero E6 [5] = assay: as above
Caco-2 [6] = assay: relative viability EC50 (midpoint between 100% and the lowest measured viability); higher = less toxic
Calu-3 [7] = assay: as above
HepG2 [8] = assay: as above
U2OS [9] = assay: as above
Vero E6 [10] = assay: as above
Caco-2 [11] = assay: drug sensitivity score (DSS) for viability; higher = more toxic; extreme values may be limits of the assay
Calu-3 [12] = assay: as above
HepG2 [13] = assay: as above
U2OS [14] = assay: as above
Vero E6 [15] = assay: as above

| Compound | cell viability (Caco-2 [1]; 1 nM) [%] | cell viability (Caco-2 [1]; 10 nM) [%] | cell viability (Caco-2 [1]; 100 nM) [%] | cell viability (Caco-2 [1]; 1000 nM) [%] | cell viability (Caco-2 [1]; 10000 nM) [%] | cell viability (Calu-3 [2]; 1 nM) [%] | cell viability (Calu-3 [2]; 10 nM) [%] | cell viability (Calu-3 [2]; 100 nM) [%] | cell viability (Calu-3 [2]; 1000 nM) [%] | cell viability (Calu-3 [2]; 10000 nM) [%] | cell viability (HepG2 [3]; 1 nM) [%] | cell viability (HepG2 [3]; 10 nM) [%] | cell viability (HepG2 [3]; 100 nM) [%] | cell viability (HepG2 [3]; 1000 nM) [%] | cell viability (HepG2 [3]; 10000 nM) [%] | cell viability (U2OS [4]; 1 nM) [%] | cell viability (U2OS [4]; 10 nM) [%] | cell viability (U2OS [4]; 100 nM) [%] | cell viability (U2OS [4]; 1000 nM) [%] | cell viability (U2OS [4]; 10000 nM) [%] | cell viability (Vero E6 [5]; 1 nM) [%] | cell viability (Vero E6 [5]; 10 nM) [%] | cell viability (Vero E6 [5]; 100 nM) [%] | cell viability (Vero E6 [5]; 1000 nM) [%] | cell viability (Vero E6 [5]; 10000 nM) [%] | relative viability EC50 (Caco-2 [6]) [µM] | relative viability EC50 (Calu-3 [7]) [µM] | relative viability EC50 (HepG2 [8]) [µM] | relative viability EC50 (U2OS [9]) [µM] | relative viability EC50 (Vero E6 [10]) [µM] | drug sensitivity score (Caco-2 [11]) | drug sensitivity score (Calu-3 [12]) | drug sensitivity score (HepG2 [13]) | drug sensitivity score (U2OS [14]) | drug sensitivity score (Vero E6 [15]) |
| --- | --- | --- | --- | --- | --- | --- | --- | --- | --- | --- | --- | --- | --- | --- | --- | --- | --- | --- | --- | --- | --- | --- | --- | --- | --- | --- | --- | --- | --- | --- | --- | --- | --- | --- | --- |
| CCCCCC(C)N (stereo not given) [tuaminoheptane] | 90.7 | 89.6 | 95.9 | 96.8 | 87.6 | 90.3 | 98.6 | 109 | 107 | 104 | 103 | 94.9 | 83 | 88.8 | 90.8 | 100 | 101 | 97.5 | 99.9 | 96.4 | 96.4 | 103 | 97.9 | 95 | 94.4 | > 10 | > 10 | > 10 | > 10 | > 10 | 0 | 0 | 4.1 | 0 | 0 |
| COc1ccccc1N1CCN(CCCNc2cc(=O)n(C)c(=O)n2C)CC1 [urapidil] | 92.1 | 96.4 | 97.9 | 101 | 104 | 96.7 | 98.5 | 96.4 | 102 | 107 | 105 | 90.1 | 107 | 95.8 | 95 | 91.1 | 97.5 | 95.2 | 101 | 103 | 100 | 100 | 98.8 | 98.6 | 102 | > 10 | > 10 | > 10 | > 10 | > 10 | 0 | 0 | 0 | 0 | 0 |
| NC(N)=O [urea] | 96.4 | 93.4 | 102 | 94.5 | 108 | 100 | 92.1 | 93.8 | 114 | 89.3 | 82.1 | 86.1 | 90.2 | 86.5 | 94.2 | 95.8 | 97.9 | 98.6 | 101 | 97.2 | 97.8 | 100 | 104 | 92.3 | 103 | > 10 | > 10 | > 10 | > 10 | > 10 | 0 | 0 | 0 | 0 | 0 |
| Cc1onc(-c2ccccc2)c1-c1ccc(S(N)(=O)=O)cc1 [valdecoxib] | 103 | 97.5 | 98 | 93.4 | 93.6 | 95.6 | 104 | 105 | 96.9 | 106 | 89.6 | 95.3 | 97.5 | 96 | 96.1 | 96.5 | 94.9 | 97.8 | 99.5 | 98.5 | 102 | 99.1 | 106 | 93.8 | 99.5 | > 10 | > 10 | > 10 | > 10 | > 10 | 0 | 0 | 0 | 0 | 0 |
| CC(C)(C)c1ccc(S(=O)(=O)Nc2ccc(Cl)cc2C(=O)c2cc[n+]([O-])cc2)cc1 [vercirnon] | 89.6 | 97.4 | 87.4 | 110 | 100 | 95.4 | 99.9 | 99.7 | 93 | 96.3 | 93.4 | 93.7 | 104 | 106 | 89.4 | 97.7 | 97.5 | 97.1 | 104 | 104 | 98.2 | 97.4 | 94.7 | 95.6 | 106 | > 10 | > 10 | > 10 | > 10 | > 10 | 0 | 0 | 0 | 0 | 0 |
| CC[C@]1(O)C[C@@H]2CN(CCc3c([nH]c4ccccc34)[C@@](C(=O)OC)(c3cc4c(cc3OC)N(C)[C@H]3[C@@](O)(C(N)=O)[C@H](O)[C@]5(CC)C=CCN6CC[C@]43[C@@H]65)C2)C1 [vindesine] | 93.8 | 72.7 | 48.5 | 41.2 | 40.3 | 93.8 | 70.6 | 61.4 | 47 | 45.9 | 92.9 | 64.8 | 43.2 | 35.8 | 37.2 | 98.7 | 73.5 | 31.6 | 26.4 | 22.3 | 96.4 | 95.3 | 83.3 | 33.6 | 27.3 | 0.0121 | 0.0122 | 0.0085 | 0.018 | 0.219 | 20.6 | 17.8 | 23.5 | 25.7 | 14.3 |
| Cn1nc(-c2ccc(C(F)(F)F)cc2)nc2c(=O)n(C)c(=O)nc1-2 [walrycin-B] | 96.6 | 99.2 | 99.3 | 61.8 | 7.5 | 109 | 108 | 108 | 98 | 48.5 | 108 | 101 | 84.7 | 51.3 | 1.6 | 105 | 107 | 100 | 98 | 1.8 | 102 | 100 | 102 | 101 | 34.4 | 1.15 | 2.87 | 0.88 | 3.02 | 3.26 | 10.2 | 3 | 11.6 | 5.7 | 3.5 |
